Holding throughout (type): cell-based
Experiment [1] concerns Staphylococcus aureus (ATCC 6538). Put plainly: Direct contact test on glass plates, Log10 reduction of S. aureus (CFU/mL). How it is done: The anti-microbial-retaining hydrogel formulation was prepared by the addition of Tetronic® 1107 tetramethacrylate (12.64% w/w), prepared according to Example 6, to glycerol (29.48% w/w). Then triethanolamine (0.84% w/w) was added in water (7.58% w/w), diphenyliodonium hexafluorophosphate (0.067% w/w) and 4-(diphenylphosphino)benzoic acid (0.166% w/w) were added in ethanol (8.16% w/w) and a specified amount of anti-microbial agent was added in PBS buffer ×1 (40.01% w/w). The mixture was placed into a thermoshaker and heated and shaken (50° C., 1200 rpm) for 20 minutes. Next, ethyl (2,4,6-trimethylbenzoyl) phenylphosphinate (0.31% w/w) and eosin Y (0.00125% w/w) were added to the mixture in ethanol (4.01% w/w) and the solution was mixed at room temperature for 20 seconds.
A 15 mL falcon tube containing 5 mL of BHI medium was inoculated with Staphylococcus aureus (ATCC 6538) and incubated overnight at 37° C. on a shaker (140 rpm). On the next day, a 15 mL falcon tube containing 5 mL BHI medium was inoculated with 100 μL of the overnight culture and incubated at 37° C. for 3.5 hours at 140 rpm.
Glass plates (18 mm×18 mm) were added with anti-microbial-retaining hydrogel formulation (50 μL) and covered with another glass plate (18 mm×18 mm) in the well of a 6-well plate. Samples were polymerized by the light from the laminar flow hood for 30 minutes. […]
S. aureus cultures were diluted to an OD600 (optical density at λ=600 nm) of 0.2 and 50 μL added to the glass plates (18 mm×18 mm) covered with the anti-microbial retaining hydrogel formulation of the present invention. Samples were covered with a glass plate (18 mm×18 mm) and incubated at 37° C. for 60 minutes. Bacteria were recovered by addition of 1 mL of BHI medium to each well and manually shaking the plate for 30 seconds. From each solution a four times ten-fold dilution series was prepared, resulting in 5 concentrations (each time adding 20 μL of the previous solution to 180 μL of PBS). A BHI agar plate was divided into 5 sectors and from each dilution, three drops of 10 μL were added to one sector. The plates were incubated overnight at 37° C. From the dilution containing 3-30 colonies, the CFU/mL (colony forming units per mL) were calculated and recorded.
Samples were prepared as triplicates. As negative controls, glass plates with no hydrogel and with hydrogel but no anti-microbial agent were prepared. As a control group, glass plates were added with stock solutions of the appropriate disinfectant in PBS (50 μL) at the same concentration as in the hydrogel.
For the washing of samples, the polymerized hydrogel sample was washed with 1 mL PBS solution, after which the PBS solution was removed. The sample was let air dry for 15 minutes before bacterial was then applied as described above.

In experiment [2] the test system is P. aeruginosa. Description: Direct contact test on glass plates, Log10 reduction of P. aeruginosa.
Experiment [3] deals with Staphylococcus aureus (ATCC 6538). Put plainly: Direct contact test on glass plates, Log10 reduction of S. aureus (CFU/mL). This is another data set of the same source.
The mark [4] stands for this setting: modified anti-microbial agents 1% w/w in hydrogel formulation according to Example 22.
The mark [5] stands for this setting: DDAC 0.1% w/w in polymerized hydrogel vs other sanitizing agents on glass surfaces, 0 washes.
[6] abbreviates: DDAC 0.1% w/w in polymerized hydrogel vs other sanitizing agents on glass surfaces, 5 washes with 1 mL water.
Where [7] appears, read: unmodified anti-microbial agents 0.1% w/w in hydrogel (Sterilium with no hydrogel), 0 washes with 1 mL water.
Where [8] appears, read: unmodified anti-microbial agents 0.1% w/w in hydrogel (Sterilium with no hydrogel), 5 washes with 1 mL water.
[9] abbreviates: unmodified anti-microbial agents 1.0% w/w in hydrogel (Sterilium with no hydrogel), 0 washes with 1 mL water.
Setting [10] is: unmodified anti-microbial agents 1.0% w/w in hydrogel (Sterilium with no hydrogel), 5 washes with 1 mL water.

Consider “2-(N,N,N-Cetylmethylbenzylammonium)ethyl methacrylate bromide”, for which the “Log10 reduction of S. aureus” value in experiment [1] (setting [4]) is reported as greater than 2 Log10. In experiment [2] (setting [4]), the “Log10 reduction of P. aeruginosa” value is on record as less than 1 Log10.

As for “2-(N,N,N-Dodecyldimethylammonium)ethyl methacrylate bromide”, in experiment [1] (setting [4]), the “Log10 reduction of S. aureus” value is 3 Log10. For the same compound, the “Log10 reduction of P. aeruginosa” value in experiment [2] (setting [4]) is 1 Log10.

For “2-(N,N,N-dodecylmethylbenzylammonium)ethyl methacrylate bromide”, the “Log10 reduction of S. aureus” value in experiment [1] (setting [4]) was greater than 4 Log10. For the same compound, the “Log10 reduction of P. aeruginosa” value in experiment [2] (setting [4]) is listed as 3 Log10.

For “9-(N,N,N-Benzylbutylmethylammonium)nonyl methacrylate bromide”, the “Log10 reduction of S. aureus” value in experiment [1] (setting [4]) is less than 1 Log10. Moreover, in experiment [2] (setting [4]), the “Log10 reduction of P. aeruginosa” value is listed as 1 Log10.

On to “12-(N,N,N-Benzylbutylmethylammonium)dodecyl methacrylate bromide”, for which the “Log10 reduction of S. aureus” value in experiment [1] (setting [4]) is recorded as greater than 4 Log10. Further, the “Log10 reduction of P. aeruginosa” value in experiment [2] (setting [4]) is recorded as 1 Log10.

Regarding “12-(N,N,N-Butyldimethylammonium)dodecyl methacrylate bromide”, the “Log10 reduction of S. aureus” value in experiment [1] (setting [4]) was greater than 1 Log10. Moreover, the “Log10 reduction of P. aeruginosa” value in experiment [2] (setting [4]) worked out at 1 Log10.

With “16-(N,N,N-Benzylbutylmethylammonium)cetyl methacrylate bromide”, the “Log10 reduction of S. aureus” value in experiment [1] (setting [4]) is greater than 4 Log10. In addition, the “Log10 reduction of P. aeruginosa” value in experiment [2] (setting [4]) was less than 1 Log10.

Consider `C=C(C)C(=O)OCCOCC[n+]1ccc(CCCCCCCCCCCCC)cc1.[Cl-]` [2-(4-Tridecylpyridin-1-uim)ethoxyethyl methacrylate chloride], for which, in experiment [1] (setting [4]), the “Log10 reduction of S. aureus” value is recorded as greater than 4 Log10. In addition, the “Log10 reduction of P. aeruginosa” value in experiment [2] (setting [4]) was found to be 1 Log10.

For `C=C(C)C(=O)OCCOCC[n+]1ccc(CCCCCCCCCCCCCCCCC)cc1.[Cl-]` [2-(4-heptadecylpyridin-1-uim)ethoxyethyl methacrylate chloride], in experiment [1] (setting [4]), the “Log10 reduction of S. aureus” value is reported as greater than 1 Log10. The “Log10 reduction of P. aeruginosa” value in experiment [2] (setting [4]) is less than 1 Log10.

With `C=C(C)C(=O)OCCOCC[N+](C)(C)CCCCCCCCCCCCCCCC.[Cl-]` [2-(N,N,N-Cetyldimethylammonium)ethoxyethyl methacrylate chloride], in experiment [1] (setting [4]), the “Log10 reduction of S. aureus” value is listed as greater than 1 Log10. Also, the “Log10 reduction of P. aeruginosa” value in experiment [2] (setting [4]) is listed as greater than 1 Log10.

On to `C=C(C)C(=O)OCC[N+](C)(C)CCOCCOc1ccc(C(C)(C)CC(C)(C)C)cc1.[Cl-]` [2-(methacryloyloxy)-N,N-dimethyl-N-(2-(2-(4-(2,4,4-trimethylpentan-2-yl)phenoxy)ethoxy)ethyl)ethan-1-aminium chloride], for which the “Log10 reduction of S. aureus” value was greater than 4 Log10 in experiment [1] (setting [4]); greater than 4 Log10 in experiment [3] (1% w/w in hydrogel, 0 washes with 1 mL water); greater than 3 Log10 in experiment [3] (1% w/w in hydrogel, 5 washes with 1 mL water); 4 Log10 in experiment [3] (1% w/w in hydrogel, 20 washes with 1 mL water); greater than 3 Log10 in experiment [3] (1% w/w in hydrogel, 2 hours soaking in water). Moreover, in experiment [2] (setting [4]), the “Log10 reduction of P. aeruginosa” value amounted to 1 Log10.

Consider `CC(C)O` [60% Isopropanol, Isopropanol], for which the “Log10 reduction of S. aureus” value in experiment [3] (setting [5]) is given as greater than 4 Log10; in experiment [3] (setting [6]), less than 1 Log10.

In the case of `CCO` [70% Ethanol, Ethanol], the “Log10 reduction of S. aureus” value in experiment [3] (setting [5]) is greater than 4 Log10; in experiment [3] (setting [6]) it was less than 1 Log10.

In the case of `CC(C)(C)CC(C)(C)c1ccc(OCCOCC[N+](C)(C)Cc2ccccc2)cc1` [Anti-microbial agent on glass surface, benzethonium chloride], the “Log10 reduction of S. aureus” value is given as less than 1 Log10 in experiment [1] (benzethonium chloride 0.1% w/w, on glass with no hydrogel or in polymerized hydrogel, 20 washes with 1 mL water); greater than 4 Log10 in experiment [3] (benzethonium chloride 0.1% w/w, on glass with no hydrogel or in polymerized hydrogel, 0 washes with 1 mL water); less than 1 Log10 in experiment [3] (benzethonium chloride 0.1% w/w, on glass with no hydrogel or in polymerized hydrogel, 5 washes with 1 mL water); less than 1 Log10 in experiment [3] (benzethonium chloride 0.1% w/w, on glass with no hydrogel or in polymerized hydrogel, 10 washes with 1 mL water).

On to `CC(C)(C)CC(C)(C)c1ccc(OCCOCC[N+](C)(C)Cc2ccccc2)cc1` [Benzethonium chloride, benzethonium chloride], for which the “Log10 reduction of S. aureus” value in experiment [1] (0.1% w/w in hydrogel (Example 28), 20 washes with 1 mL water) was determined as 2 Log10; in experiment [3] (0.1% w/w in hydrogel (Example 28), 0 washes with 1 mL water), 2 Log10; in experiment [3] (0.1% w/w in hydrogel (Example 28), 5 washes with 1 mL water), 3 Log10; in experiment [3] (0.1% w/w in hydrogel (Example 28), 2 hours soaking in water), 3 Log10; in experiment [3] (setting [7]) it was 2 Log10; in experiment [3] (setting [8]) it was 3 Log10.

With `N=C(NCCCCCCNC(=N)NC(=N)Nc1ccc(Cl)cc1)NC(=N)Nc1ccc(Cl)cc1` [Chlorohexidine], the “Log10 reduction of P. aeruginosa” value in experiment [2] (setting [9]) is on record as greater than 2 Log10; in experiment [2] (setting [10]) it was greater than 4 Log10. The “Log10 reduction of S. aureus” value in experiment [3] (setting [7]) and in experiment [3] (setting [8]) was greater than 4 Log10 throughout.

As for `CCCCCCCCCC[N+](C)(C)CCCCCCCCCC.[Cl-]` [Didecyldimethylammonium chloride, didecyldimethylammonium chloride], the figures for the “Log10 reduction of P. aeruginosa” value in experiment [2] (setting [9]) and in experiment [2] (setting [10]) were 2 Log10 and greater than 4 Log10, respectively. The “Log10 reduction of S. aureus” value in experiment [3] (setting [7]) is greater than 3 Log10; in experiment [3] (setting [8]), greater than 4 Log10.

Benzalkonium chloride: the “Log10 reduction of P. aeruginosa” value in experiment [2] (setting [9]) is reported as greater than 1 Log10; in experiment [2] (setting [10]), greater than 4 Log10. Further, the “Log10 reduction of S. aureus” value in experiment [3] (setting [7]) is reported as 2 Log10; in experiment [3] (setting [8]), greater than 4 Log10.
